Target: Aldo-keto reductase family 1 member B1 (Homo sapiens, UniProt P15121)
Test: Enzyme Inhibition Assay
Settings: pH 6.2; 30 °C
Description: The activity of the test enzyme was determined spectrophotometrically by monitoring the change in absorbance at 340 nm, which is due to the oxidation of NADPH or the reduction of NAD+ catalyzed by ALR2. The determination of the IC50 values was performed by using linear regression analysis of the log dose response curve.

IC50 | Structure (SMILES)
10 µM | O=C(O)CN1C(=O)c2c(ccc3ccccc23)S1(=O)=O [2-(3,5,5-trioxo-5-thia-4-azatricyclo[7.4.0.0^{2,6}]trideca-1,6,8,10,12-pentaen-4-yl)acetic acid]
100 µM | Nc1cccc2c3c(ccc12)S(=O)(=O)N(CC(=O)O)C3=O [2-(10-amino-3,5,5-trioxo-5-thia-4-azatricyclo[7.4.0.0^{2,6}]trideca-1,6,8,10,12-pentaen-4-yl)acetic acid]
180 µM | O=C(O)CN1C(=O)c2c(ccc3c([N+](=O)[O-])cccc23)S1(=O)=O [2-(10-nitro-3,5,5-trioxo-5-thia-4-azatricyclo[7.4.0.0^{2,6}]trideca-1,6,8,10,12-pentaen-4-yl)acetic acid]
100 µM | Nc1cccc2ccc3c(c12)C(=O)N(CC(=O)O)S3(=O)=O [2-(13-amino-3,5,5-trioxo-5-thia-4-azatricyclo[7.4.0.0^{2,6}]trideca-1,6,8,10,12-pentaen-4-yl)acetic acid]
190 µM | O=C(O)CN1C(=O)c2c(ccc3cccc([N+](=O)[O-])c23)S1(=O)=O [2-(13-nitro-3,5,5-trioxo-5-thia-4-azatricyclo[7.4.0.0^{2,6}]trideca-1,6,8,10,12-pentaen-4-yl)acetic acid]
0.14 µM | O=C(O)CN1C(=O)c2c(c(C(=O)O)cc3ccccc23)S1(=O)=O [2-(carboxymethyl)-1-oxo-1,2-dihydronaphtho[1,2-d]isothiazole-4-carboxylic acid 3,3-dioxide]
0.55 µM | O=C(O)COC(=O)c1cc2ccccc2c2c1S(=O)(=O)N(CC(=O)O)C2=O [2-{[4-(carboxymethyl)-3,5,5-trioxo-5-thia-4-azatricyclo[7.4.0.0^{2,6}]trideca-1,6,8,10,12-pentaen-7-yl]carbonyloxy}acetic acid]
88 µM | CN1C(=O)c2c(c(C(=O)O)cc3ccccc23)S1(=O)=O [4-methyl-3,5,5-trioxo-5-thia-4-azatricyclo[7.4.0.0^{2,6}]trideca-1,6,8,10,12-pentaene-7-carboxylic acid]

— BindingDB's records for doi:10.1016/j.jmb.2007.03.021 (University of Marburg, 2007)
